# Measurements reported in PubChem BioAssay (NCI).
#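 All cell lines were grown in 96-well plates and treated with compound for 48 hours. GI50 is the concentration that inhibits growth by half. TGI: concentration producing complete growth inhibition.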
# Legend:
# Test in all cases: NCI tumour cell line growth inhibition, 48 h
# [1] = test system: HOP-62 NSCLC
# [2] = test system: OVCAR-8 ovarian
# [3] = test system: IGROV1 ovarian
# [4] = test system: HL-60(TB) leukemia
# [5] = test system: A498 renal
# [6] = test system: PC-3 prostate
# [7] = test system: SK-MEL-2 melanoma
# [8] = test system: ACHN renal
# [9] = test system: T-47D breast
# [10] = test system: CCRF-CEM leukemia
# [11] = test system: EKVX NSCLC
# [12] = test system: NCI/ADR-RES ovarian
# [13] = test system: RPMI-8226 leukemia
# [14] = test system: BT-549 breast
# [15] = test system: SNB-19 CNS
# [16] = test system: NCI-H460 lung
# [17] = test system: COLO 205 colon
# [18] = test system: OVCAR-5 ovarian
# [19] = test system: UACC-257 melanoma
# [20] = test system: DU-145 prostate
# [21] = test system: SK-OV-3 ovarian
# [22] = test system: U251 CNS
# [23] = test system: 786-0 renal
# [24] = test system: LOX IMVI melanoma
# [25] = test system: SF-268 CNS
# [26] = test system: SW-620 colon
# [27] = test system: MDA-MB-231 breast
# [28] = test system: NCI-H522 lung
# [29] = test system: UACC-62 melanoma
# [30] = test system: SK-MEL-5 melanoma
# [31] = test system: OVCAR-3 ovarian
# [32] = test system: HS 578T breast
# [33] = test system: MALME-3M melanoma
# [34] = test system: CAKI-1 renal
# [35] = test system: MDA-MB-435
# [36] = test system: MOLT-4 leukemia
# [37] = test system: TK-10 renal
# [38] = test system: RXF 393 renal
# [39] = test system: KM12 colon
# [40] = test system: NCI-H226 lung
# [41] = test system: SK-MEL-28 melanoma
# [42] = test system: M14 melanoma
# [43] = test system: NCI-H23 lung
# [44] = test system: SR leukemia
# [45] = test system: HT29 colon
# [46] = test system: MDA-MB-468 breast
# [47] = test system: HCT-15 colon
# [48] = test system: K-562 leukemia
# [49] = test system: MCF7 breast
# [50] = test system: UO-31 renal
# [51] = test system: A549 NSCLC
# [52] = test system: HCT-116 colon
# [53] = test system: SNB-75 CNS
# [54] = test system: SN12C renal
# [55] = test system: SF-539 CNS
# [56] = test system: OVCAR-4 ovarian
# [57] = test system: HCC-2998 colon
# [58] = test system: HOP-92 NSCLC
structure (smiles),measurement,setting,value
O=C(CSc1nnc(-c2ccc(-c3nc4ccc(Cl)cc4[nH]3)cc2)o1)Nc1ccccc1,GI50,[1],2.18 µM
same,TGI,[1],5.54 µM
same,GI50,[2],3.88 µM
same,TGI,[2],18 µM
same,GI50,[3],13.5 µM
same,TGI,[3],28.5 µM
same,GI50,[4],16.4 µM
same,TGI,[4],> 100 µM
same,GI50,[5],15.2 µM
same,TGI,[5],28.5 µM
same,GI50,[6],1.82 µM
same,TGI,[6],5.04 µM
same,GI50,[7],14.9 µM
same,TGI,[7],30.5 µM
same,GI50,[8],2.64 µM
same,TGI,[8],11 µM
same,GI50,[9],17.1 µM
same,TGI,[9],41.4 µM
same,GI50,[10],7.3 µM
same,TGI,[10],68.8 µM
same,GI50,[11],4.86 µM
same,TGI,[11],25.6 µM
same,GI50,[12],9.04 µM
same,TGI,[12],43.5 µM
same,GI50,[13],15.5 µM
same,TGI,[13],> 100 µM
same,GI50,[14],2.98 µM
same,TGI,[14],17 µM
same,GI50,[15],3.26 µM
same,TGI,[15],12.2 µM
same,GI50,[16],0.9 µM
same,TGI,[16],2.97 µM
same,GI50,[17],14.9 µM
same,TGI,[17],41.9 µM
same,GI50,[18],7.42 µM
same,TGI,[18],27.2 µM
same,GI50,[19],5.91 µM
same,TGI,[19],21.8 µM
same,GI50,[20],2.44 µM
same,TGI,[20],5.48 µM
same,GI50,[21],3.97 µM
same,TGI,[21],14.9 µM
same,GI50,[22],4.54 µM
same,TGI,[22],17.9 µM
same,GI50,[23],1.52 µM
same,TGI,[23],3.44 µM
same,GI50,[24],1.83 µM
same,TGI,[24],4.48 µM
same,GI50,[25],2.44 µM
same,TGI,[25],6.71 µM
same,GI50,[26],3.54 µM
same,TGI,[26],15.9 µM
same,GI50,[27],3.26 µM
same,TGI,[27],11.9 µM
same,GI50,[28],2.74 µM
same,TGI,[28],10.6 µM
same,GI50,[29],6.71 µM
same,TGI,[29],19.5 µM
same,GI50,[30],3.72 µM
same,TGI,[30],14.5 µM
same,GI50,[31],3.3 µM
same,TGI,[31],11.3 µM
same,GI50,[32],2.92 µM
same,TGI,[32],13.9 µM
same,GI50,[33],1.99 µM
same,TGI,[33],5.34 µM
same,GI50,[34],1.9 µM
same,TGI,[34],3.89 µM
same,GI50,[35],2.17 µM
same,TGI,[35],7.11 µM
same,GI50,[36],8.63 µM
same,TGI,[36],> 100 µM
same,GI50,[37],20.9 µM
same,TGI,[37],39 µM
same,GI50,[38],2.38 µM
same,TGI,[38],6.52 µM
same,GI50,[39],8.4 µM
same,TGI,[39],27.4 µM
same,GI50,[40],1.87 µM
same,TGI,[40],5.28 µM
same,GI50,[41],2.52 µM
same,TGI,[41],7.01 µM
same,GI50,[42],3.39 µM
same,TGI,[42],14.1 µM
same,GI50,[43],3.04 µM
same,TGI,[43],10.1 µM
same,GI50,[44],16.3 µM
same,TGI,[44],> 100 µM
same,GI50,[45],4.5 µM
same,TGI,[45],53.6 µM
same,GI50,[46],15.6 µM
same,TGI,[46],30 µM
same,GI50,[47],8.35 µM
same,TGI,[47],> 100 µM
same,GI50,[48],3.58 µM
same,TGI,[48],> 100 µM
same,GI50,[49],7.37 µM
same,TGI,[49],> 100 µM
same,GI50,[50],10.8 µM
same,TGI,[50],22.9 µM
same,GI50,[51],2.57 µM
same,TGI,[51],11.3 µM
same,GI50,[52],3.95 µM
same,TGI,[52],41.1 µM
same,GI50,[53],1.65 µM
same,TGI,[53],4.8 µM
same,GI50,[54],3.26 µM
same,TGI,[54],13.8 µM
same,GI50,[55],2.24 µM
same,TGI,[55],5.74 µM
same,GI50,[56],3.02 µM
same,TGI,[56],11 µM
same,GI50,[57],32.8 µM
same,TGI,[57],> 100 µM
same,GI50,[58],2.33 µM
same,TGI,[58],8.78 µM
